From patent US20250263376A1, “(E)-N-CINNAMOYLAMINOALKANOLS WITH MELANOGENESIS INHIBITORY ACTIVITY” (Uniwersytet Jagiellonski, priority 2024, published 2025)

Tests used:
[1] = Lipophilicity coefficient RM0 by reversed phase thin layer chromatography; type: physicochemical; conditions: RP-18 TLC, methanol/phosphate buffer pH=7.4
How it was run: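 RP-18 F254 TLC plates developed at room temperature in methanol/100 mM phosphate buffer pH 7.4, methanol 95–65% (v/v), spots seen under UV 254 nm, in duplicate. RM = log(1/Rf − 1) regressed linearly against methanol content to give RM0.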

[2] = biological target: T1, tyrosinase from mushroom (Agaricus bisporus, UniProt C7FF04); assay: Inhibition of commercial mushroom tyrosinase, substrate L-DOPA; type: biochemical; conditions: read-out: Tyrosinase inhibition with L-DOPA [%]
How it was run: (§1)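 Compounds at final 500, 250 or 125 μM with tyrosinase (1 or 3 U/well) in 50 mM phosphate buffer pH 6.8; reaction started with L-tyrosine (monophenolase) or L-DOPA (diphenolase). After 25 min, absorbance at 475 nm; % inhibition versus DMSO control.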

[3] = biological target: T1, tyrosinase from mushroom; assay: Inhibition of commercial mushroom tyrosinase, substrate L-tyrosine; type: biochemical; conditions: read-out: Tyrosinase inhibition with L-tyrosine [%]
How it was run: as §1

[4] = test system: B16-F10 murine melanoma cell line; assay: Cytotoxicity (MTT) in B16-F10 murine melanoma cells; type: cell-based; conditions: 48 h
How it was run: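 B16-F10 cells seeded 5000/well in F10-Ham with 1% FBS, grown 24 h, then exposed to compound at various concentrations for 48 h. MTT formazan dissolved in DMSO, absorbance at 570 nm; viability as % of DMSO control (AT/AC×100).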

[5] = test system: primary melanocytes; assay: Safety, MTT test in primary melanocytes; type: cell-based; conditions: 48 hours
Method: In order to test the safety of the compounds, both normal human cells were used: keratinocytes (HaCaT), fibroblasts (BJ), primary melanocytes that occur in the skin, as well as human cancer cells: the hepatocarcinoma line HepG2 and the neuroblastoma line SH-SY5Y, which are considered a model for the assessment of hepatocytotoxicity and neurocytotoxicity. The concentrations of the tested compounds in the range of […] were used in the studies. The cell lines used in the research were purchased from the American Type Culture Collection (ATCC) and were cultured in media recommended by the manufacturer with the addition of FBS and antibiotics in an incubator ensuring appropriate culture conditions, i.e. humidity, temperature and CO2 concentration. Cells were seeded into multiwell plates and incubated with the test compounds for 48 hours. After this time, MTT and LDH tests were performed to assess cell viability. The MTT test is based on the ability to transform the substrate: [3-(4,5-dimethyl-2-thiazolyl)-2,5-diphenyl-2H-tetrazolium bromide into a colored product only by living cells. The absorbance at 570 nm, which corresponds to the absorption maximum for the product, is directly proportional to cell viability. The LDH test is based on testing the activity of the enzyme lactate dehydrogenase in the culture medium, which is released from cells as a result of damage to the cell membrane, e.g. as a result of cell death. Triton X-100 was used as a positive control in the test. The determination is colorimetric, the substrate is transformed by the released enzyme into a colored product, an increase in absorbance indicates a larger amount of the released enzyme, and thus confirms greater damage to cell membranes. Tables 7 and 8 present the results obtained, which correspond to the viability of cells incubated with the compounds in relation to the viability of cells constituting a control sample, i.e. incubated with the solvent (DMSO) at the same concentration as in the case of the groups tested in the MTT test or in relation to the results obtained for the Triton X-100 positive control in the LDH test. They indicate that the compounds are safe at the concentrations tested.

T1 sequence (C7FF04 2-392): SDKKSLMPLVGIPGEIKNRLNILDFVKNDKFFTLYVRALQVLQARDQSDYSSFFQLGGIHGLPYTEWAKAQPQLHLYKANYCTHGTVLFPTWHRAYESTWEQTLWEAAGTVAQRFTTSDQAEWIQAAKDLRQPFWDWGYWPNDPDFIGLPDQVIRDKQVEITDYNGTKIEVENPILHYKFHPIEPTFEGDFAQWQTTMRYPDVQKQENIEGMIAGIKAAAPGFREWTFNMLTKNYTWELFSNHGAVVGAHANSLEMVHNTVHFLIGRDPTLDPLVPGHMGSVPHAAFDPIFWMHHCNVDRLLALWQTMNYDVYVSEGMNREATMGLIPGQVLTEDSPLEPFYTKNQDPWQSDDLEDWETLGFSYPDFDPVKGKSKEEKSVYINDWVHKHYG
T1 sequence (G1K3P4 entry or part of it, further chain): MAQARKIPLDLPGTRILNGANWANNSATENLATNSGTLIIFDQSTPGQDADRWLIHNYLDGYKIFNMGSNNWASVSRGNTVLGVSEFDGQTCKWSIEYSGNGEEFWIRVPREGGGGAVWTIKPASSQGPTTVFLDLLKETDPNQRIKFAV

**Q.** What does the source list for `O=C(/C=C/c1ccc(Cl)cc1)NCCO` [H-427/21, (2E)-3-(4-chlorophenyl)-N-(2-hydroxyethyl)prop-2-enamide]?
**A.** RM0 [1]: 1.93; inhibition at 500 µM ([2]; 500 μM): 55.8 ± 0.77%; inhibition at 500 µM ([3]; 500 μM): 67.5 ± 2.66%; Cytotoxicity study in B16F10 cells, % viability ([4]; 150 μM): 73.7%; Cytotoxicity study in B16F10 cells, % viability ([4]; 200 μM): 80.2%; Cytotoxicity study in B16F10 cells, % viability ([4]; 250 μM): 77.8%; MTT, Primary melanocytes ([5]; 100 μM): 102.20 ± 2.24 % of solvent control; MTT, Primary melanocytes ([5]; 150 μM): 100.57 ± 2.18 % of solvent control; MTT, Primary melanocytes ([5]; 200 μM): 93.78 ± 2.18 % of solvent control; MTT, Primary melanocytes ([5]; 250 μM): 85.19 ± 2.03 % of solvent control

**Q.** For `Cc1ccc(/C=C/C(=O)NCCCCCO)cc1` [H-415/21, (2E)-N-(5-hydroxypentyl)-3-(4-methylphenyl)prop-2-enamide], which RM0 [1] is on record?
**A.** 2.49

**Q.** What about the inhibition at 500 µM [2] of the same compound?
**A.** 30.4 ± 0.88%

**Q.** What about the inhibition at 500 µM [3] of the same compound?
**A.** 25 ± 5.67%

**Q.** What about the “Cytotoxicity study in B16F10 cells, % viability” value (“Cytotoxicity study … % viability” for short) ([4]; 150 μM) of the same compound?
**A.** 85.2%

**Q.** And the “Cytotoxicity study … % viability” value ([4]; 200 μM)?
**A.** 90.3%

**Q.** What about the “Cytotoxicity study … % viability” value ([4]; 250 μM) of the same compound?
**A.** 75.7%

**Q.** What about the “MTT, Primary melanocytes” value ([5]; 100 μM) of the same compound?
**A.** 103.27 ± 1.88 % of solvent control

**Q.** And the “MTT, Primary melanocytes” value ([5]; 150 μM)?
**A.** 99.89 ± 2.43 % of solvent control

**Q.** And the “MTT, Primary melanocytes” value ([5]; 200 μM)?
**A.** 94.81 ± 2.92 % of solvent control

**Q.** What about the “MTT, Primary melanocytes” value ([5]; 250 μM) of the same compound?
**A.** 87.64 ± 1.44 % of solvent control

**Q.** For `O=C(/C=C/c1ccccc1)NCCCCCO` [Compound A-133, (2E)-N-(5-hydroxypentyl)-3-phenylprop-2-enamide], which RM0 [1] is on record?
**A.** 2.15

**Q.** And the inhibition at 500 µM [2]?
**A.** 48 ± 1.83%

**Q.** And the inhibition at 500 µM [3]?
**A.** 58.6 ± 4.58%

**Q.** What about the “Cytotoxicity study … % viability” value ([4]; 150 μM) of the same compound?
**A.** 101.7%

**Q.** What about the “Cytotoxicity study … % viability” value ([4]; 200 μM) of the same compound?
**A.** 94.9%

**Q.** What about the “Cytotoxicity study … % viability” value ([4]; 250 μM) of the same compound?
**A.** 95.6%

**Q.** What about the “MTT, Primary melanocytes” value ([5]; 100 μM) of the same compound?
**A.** 103.69 ± 2.57 % of solvent control

**Q.** What about the “MTT, Primary melanocytes” value ([5]; 150 μM) of the same compound?
**A.** 101.88 ± 2.47 % of solvent control

**Q.** What about the “MTT, Primary melanocytes” value ([5]; 200 μM) of the same compound?
**A.** 97.05 ± 2.96 % of solvent control

**Q.** And the “MTT, Primary melanocytes” value ([5]; 250 μM)?
**A.** 88.88 ± 2.26 % of solvent control

**Q.** For `O=C(/C=C/c1ccccc1)NCCCCCCO` [H-425/21, (E)-N-(6-hydroxyhexyl)cinnamic acid amide], which RM0 [1] is on record?
**A.** 2.40

**Q.** What about the inhibition at 500 µM ([2]; 500 μM) of the same compound?
**A.** 34.6 ± 2.46%

**Q.** What about the inhibition at 500 µM ([3]; 500 μM) of the same compound?
**A.** 44.6 ± 5.99%

**Q.** And the “Cytotoxicity study … % viability” value ([4]; 150 μM)?
**A.** 109.2%

**Q.** What about the “Cytotoxicity study … % viability” value ([4]; 200 μM) of the same compound?
**A.** 98.4%

**Q.** And the “Cytotoxicity study … % viability” value ([4]; 250 μM)?
**A.** 86.9%

**Q.** For `O=C(/C=C/c1ccc(Cl)cc1)NCCCCCO` [Compound A-111, (2E)-3-(4-chlorophenyl)-N-(5-hydroxypentyl)prop-2-enamide], which RM0 [1] is on record?
**A.** 2.79

**Q.** What about the inhibition at 250 µM [2] of the same compound?
**A.** 59.9 ± 1.56%

**Q.** What about the inhibition at 500 µM [3] of the same compound?
**A.** 89 ± 0.98%

**Q.** And the “Cytotoxicity study … % viability” value ([4]; 150 μM)?
**A.** 88.2%

**Q.** What about the “Cytotoxicity study … % viability” value ([4]; 200 μM) of the same compound?
**A.** 95.6%

**Q.** What about the “Cytotoxicity study … % viability” value ([4]; 250 μM) of the same compound?
**A.** 89.7%

**Q.** What about the “MTT, Primary melanocytes” value ([5]; 100 μM) of the same compound?
**A.** 104.51 ± 1.19 % of solvent control

**Q.** And the “MTT, Primary melanocytes” value ([5]; 150 μM)?
**A.** 103.09 ± 1.79 % of solvent control

**Q.** What about the “MTT, Primary melanocytes” value ([5]; 200 μM) of the same compound?
**A.** 99.25 ± 1.92 % of solvent control

**Q.** What about the “MTT, Primary melanocytes” value ([5]; 250 μM) of the same compound?
**A.** 93.39 ± 1.60 % of solvent control

**Q.** Which results are given for `O=C(/C=C/c1ccc(Cl)cc1)NCCCO` [H-330/21, (2E)-3-(4-chlorophenyl)-N-(3-hydroxypropyl)prop-2-enamide]?
**A.** RM0 [1]: 1.94; inhibition at 500 µM ([2]; 500 μM): 55.3 ± 1.39%; inhibition at 500 µM ([3]; 500 μM): 82.49 ± 0.65%; Cytotoxicity study in B16F10 cells, % viability ([4]; 150 μM): 78.6%; Cytotoxicity study in B16F10 cells, % viability ([4]; 200 μM): 82.9%; Cytotoxicity study in B16F10 cells, % viability ([4]; 250 μM): 83.9%; MTT, Primary melanocytes ([5]; 100 μM): 101.42 ± 2.21 % of solvent control; MTT, Primary melanocytes ([5]; 150 μM): 97.02 ± 4.49 % of solvent control; MTT, Primary melanocytes ([5]; 200 μM): 93.78 ± 2.29 % of solvent control; MTT, Primary melanocytes ([5]; 250 μM): 90.27 ± 2.25 % of solvent control
